Results on 80 molecules are retold here after the METLIN SMRT retention time set (Domingo-Almenara et al. 2019).

The series in a line: gradient 5% acetonitrile 3 min, to 50% in 2 min, to 85% in 15 min, held 3 min, 100 µL/min. Particulars: column: Zorbax Extend-C18 2.1 x 50 mm; eluents: water / acetonitrile, 0.1% formic acid. The essentials:
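Each retention time is based on an adduct peak selected computationally and verified by manual inspection. Measurements used HPLC–quadrupole time-of-flight mass spectrometry in positive and negative ionization mode on mixtures of ~100 pure standards. Chromatography ran on a Zorbax Extend-C18 column (2.1 × 50 mm, 1.8 μm) at 100 μL/min with water and acetonitrile, each containing 0.1% formic acid, and dead and dwell volumes of 40 μL and 900 μL.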
Turning to `CCN(Cc1nc2ccccc2n1C)c1ccccc1`, the RP-LC retention time turned out to be 593 s.

`O=C(NCc1ccc(C(F)(F)F)cc1)C1CCN(c2nnc(-c3ccccc3)o2)CC1`: the RP-LC retention time turned out to be 901 s. Under `CC(C)C(=O)Nc1ccc(CCc2nc3ccc(C(=O)NCCC4=CCCCC4)cc3[nH]2)cc1` stands 731 s.

`CCCC(=O)Nc1ccc2nc(N3CCN(c4cccc(OC)c4)CC3)cc(C(=O)O)c2c1`: the RP-LC retention time was 647 s. As for `CCOC(=O)c1sc(NC(=O)c2cn(C)nc2OC)nc1C`, the RP-LC retention time was determined as 767 s.

On to `Cc1nc(OCC(=O)Nc2ccc(Cl)cc2F)c2ccccc2n1`, for which the RP-LC retention time amounted to 789 s.

Consider `CCOC(=O)CNC(=O)N1CCCC1c1ccccc1Cl` (stereo not given), for which the RP-LC retention time amounted to 804 s. Under `CCc1cccc(NC(=O)C2CCN(S(=O)(=O)c3ccc4c(c3)NC(=O)C(C)O4)CC2)c1` (stereo not given) stands 838 s. `O=C(Nc1cccc(F)c1)C(=O)c1cn(CC(=O)N2CCOCC2)c2ccccc12` showed an RP-LC retention time of 902 s. Under `CC(C)(C)c1cc(C(=O)Nc2cccc(C#N)c2)nc2ccnn12` stands 1170 s; under `CCn1ccc(C(=O)N2CCC3(CC2)NCc2ccccc2-n2ccnc23)n1`, 579 s; under `COc1ccc(-c2noc(C3CCCN3C(=O)NCc3ccco3)n2)cc1` (stereo not given), 855 s.

Turning to `COc1ccc(-c2coc3cc(OC(=O)N(C)C)cc(O)c3c2=O)cc1OC`, the RP-LC retention time turned out to be 858 s. Under `CCOC(=O)C(C)Oc1cccc2c(=O)n(CC(=O)Nc3ccc([N+](=O)[O-])cc3)ccc12` (stereo not given) stands 842 s; under `CCc1nnc2ccc(-c3noc(-c4c(F)cccc4F)n3)cn12`, 845 s. Molecule `O=C(Nc1ccc(-c2nc(-c3ccccc3)no2)cc1)C1CC(=O)N(C2CCCCC2)C1` (stereo not given) registered an RP-LC retention time of 1070 s. `O=C(c1ccc2c(c1)OCCO2)N1CCCCC1` returned an RP-LC retention time of 839 s. Under `Cc1cc2ccccc2n1CCNC(=O)C(=O)c1c[nH]c2ccccc12` stands 1010 s; under `CC(=O)Nc1ccc(CCc2nc3ccc(C(=O)NCc4ccc5c(c4)OCO5)cc3[nH]2)cc1`, 618 s; under `Cc1cc(NC(=O)Cn2c(=O)n(C(C)C)c3ccc(-c4noc(C)n4)cc32)no1`, 755 s.

With `O=C1COc2ccc(S(=O)(=O)N3CCC(C(=O)NCc4ccc5c(c4)OCO5)CC3)cc2N1`, the RP-LC retention time was 708 s.

With `C=CCNC(=O)N1CCCN(C2=NS(=O)(=O)C(c3ccc(C)cc3)=C2C)CC1`, the RP-LC retention time came out at 732 s. Under `COc1ccc(-c2noc(CN3N=NC4C(=O)N(c5ccc(C)c(F)c5)C(=O)C43)n2)c(OC)c1` (stereo not given) stands 844 s; under `CC(=O)Nc1ccc(OCc2cc(C(=O)NC3CCC(C)CC3)no2)cc1` (stereo not given), 860 s.

In turn, `CN1C(=O)C(C)(C)COc2cc(NS(=O)(=O)Cc3cccc(Cl)c3)ccc21` displayed an RP-LC retention time of 880 s.

In turn, `CCc1ccc(NC(=O)C2CCCN2S(=O)(=O)c2cc3c(cc2Cl)NC(=O)CO3)cc1` (stereo not given) showed an RP-LC retention time of 868 s. Regarding `COc1ccc(-c2csc(NC(=O)CCCc3nc(-c4ccccc4Cl)no3)n2)cc1`, the RP-LC retention time came out at 1080 s. Consider `CC1CCN(c2nc3c(c(=O)n(C)c(=O)n3C)n2Cc2ccccc2F)CC1`, for which the RP-LC retention time was determined as 1090 s. Under `Cc1noc(CNC(=O)CSCc2ccccc2)n1` stands 684 s; under `c1ccc2c(c1)CCC[C@H]2Nc1nc2ccccc2[nH]1`, 705 s.

`COc1cccc(NC(=O)NCC(c2cccnc2)c2cn(C)c3ccccc23)c1` (stereo not given) came in with an RP-LC retention time of 684 s.

Molecule `Cc1ccc(NC(=O)c2cccc([N+](=O)[O-])c2O)c([N+](=O)[O-])c1` yielded an RP-LC retention time of 982 s.

`COc1ccc2cc(C(=O)N3CCC(CC(=O)NCCc4c[nH]c5ccc(OC)cc45)CC3)[nH]c2c1` had an RP-LC retention time of 759 s. Under `O=c1n(Cc2ccccc2Cl)nc2n1CCCCC2` stands 768 s; under `Cc1ccc(/C=C/c2nc(-c3ccc4c(c3)oc(=O)n4C(C)C)no2)o1`, 659 s. As to `CC(C)(C)c1ccc(S(=O)(=O)N2CCc3nc[nH]c3C2)cc1`, the RP-LC retention time is 683 s.

On to `CC(C)NC(=O)c1cc(C(C)C)[nH]n1`, for which the RP-LC retention time was 660 s. For the molecule `Cc1cc(-c2nnc(-c3ccccc3)o2)c(C)n1CC(=O)Nc1ccccc1F`, the RP-LC retention time was 952 s.

In the case of `O=C(Nc1cnc(N2CCOCC2)nc1)c1ccc(F)cc1Cl`, the RP-LC retention time was 743 s. Molecule `O=C(CNC(=O)c1ccccn1)Nc1nc2ccccc2[nH]1` displayed an RP-LC retention time of 601 s.

In turn, `O=C(CN1C(=O)CCCc2cc(S(=O)(=O)N3CCCCCC3)ccc21)N1CCCCCC1` gave an RP-LC retention time of 915 s. With `CCOc1ccc(Cl)cc1S(=O)(=O)N1CCC(C(=O)Nc2ccccc2C(=O)OC)CC1`, the RP-LC retention time amounted to 1150 s. In turn, `COC(=O)c1c(NC(=O)c2ccc([N+](=O)[O-])o2)sc(Cc2ccc3c(c2)OCO3)c1C` registered an RP-LC retention time of 1130 s. `N#CCn1nc2n(c1=O)CCN(S(=O)(=O)c1cccc3cccnc13)CC2` showed an RP-LC retention time of 702 s. As for `Cc1ccc(-c2ncc(C(=O)Nc3ccc(Br)cc3)c(-c3ccncc3)n2)cc1`, the RP-LC retention time came out at 994 s.

`COc1ccccc1-n1nnc(C(=O)OCc2nc(-c3ccccc3)oc2C)c1C` showed an RP-LC retention time of 972 s. For the molecule `CCCCC(=O)N1CCCN(C2=NS(=O)(=O)C(c3ccc(F)cc3)=C2C)CC1`, the RP-LC retention time came out at 825 s.

Turning to `COc1cccc(C(=O)NC2CCN(c3cc(C)cc(C)c3)C2=O)c1` (stereo not given), the RP-LC retention time stood at 876 s. `COCCOC1CN(C2CCN(Cc3ccccc3C#N)CC2)C12CCCCC2` (stereo not given) had an RP-LC retention time of 572 s.

In turn, `O=C(Cn1nc2n(c1=O)CCCC2)NCc1ccccc1Br` had an RP-LC retention time of 663 s. For the molecule `CN(CC1CCOCC1)C(=O)Cc1ccccc1`, the RP-LC retention time is 695 s.

In turn, `Cc1noc(-c2cccc(OC3CN(C(=O)c4cccn4C)C3)c2)n1` came in with an RP-LC retention time of 898 s. In turn, `Cc1cc(C)n(-c2ccnc(N(C)Cc3ccccc3)n2)n1` gave an RP-LC retention time of 1070 s. Molecule `CC1CCc2[nH]nc(C(=O)N3CCN(C(C)C)CC3)c2C1` (stereo not given) came in with an RP-LC retention time of 588 s.

`Cc1cc(NC(=O)NC2CCN(c3ccccc3)C2=O)ccc1Br` (stereo not given) returned an RP-LC retention time of 919 s. `CC(C)N1C(=O)C2(CCCC2)C1C(=O)N1CCc2ccccc21` (stereo not given) returned an RP-LC retention time of 780 s.

On to `COc1ccc(-n2nnc(C(=O)O)c2-c2ccncc2)cc1`, for which the RP-LC retention time amounted to 592 s. As for `C=CCNC(=O)c1nc(C(=O)N2CCCCCC2)cs1`, the RP-LC retention time came to 733 s.

`O=S(=O)(NCCN1CCN(c2ccc(Cl)cc2)CC1)c1ccc2c(c1)OCCO2` gave an RP-LC retention time of 620 s. In turn, `O=C(CCCc1ccccc1)Nc1cnn(-c2ncc(N3CCCC3)cn2)c1` gave an RP-LC retention time of 849 s. Under `CC(CCc1ccccc1)NC(=O)C1CCN(S(C)(=O)=O)c2cc(Cl)ccc2O1` (stereo not given) stands 1070 s; under `O=C1[C@H]2CN(Cc3ccc(Cl)cc3)C[C@H]2C(=O)N1CCc1ccccc1`, 749 s; under `COc1cc([C@H]2c3cc4c(cc3[C@@H](O)[C@H](CO)[C@H]2C(=O)N2CCCc3ccccc32)OCO4)cc(OC)c1OC`, 734 s. Under `COc1cc(NC(=O)c2cn3c(n2)CCCC3)cc(OC)c1` stands 614 s.

`O=c1ccc(-c2ccc3c(c2)OCO3)nn1CCc1nc(-c2ccc(F)c(Br)c2)no1` returned an RP-LC retention time of 1030 s. Molecule `Cc1cccc(CNC(=O)Cn2c(C)cc(-c3nnc(C4CCC4)o3)c2C)c1` displayed an RP-LC retention time of 883 s. `Cc1nc(-c2noc(-c3ccc(F)cc3)n2)cn1CC(=O)NCc1cccs1` showed an RP-LC retention time of 814 s. Regarding `Cc1cccc(NC(=O)N2CCCC(Cn3c(C4CC4)nc4cccnc43)C2)c1C` (stereo not given), the RP-LC retention time amounted to 683 s. `Cn1c(-c2ccccc2)nn(CCNC(=O)c2cc3ccccc3o2)c1=O` yielded an RP-LC retention time of 694 s. Under `O=C(Cc1ccc(NC(=O)c2cc(=O)c3ccccc3o2)cc1)NCc1cccs1` stands 739 s; under `O=S(=O)(Cc1ccccc1F)N1CCC(c2noc(-c3ccncc3)n2)C1` (stereo not given), 839 s; under `CCCCNC(=O)C1(c2ccc(NC(C)=O)cc2)CCC1`, 704 s. `Cc1ncoc1C(=O)N1CCCCCNC(=O)[C@@H]2CCC[C@@H]21` gave an RP-LC retention time of 621 s. Take `Cc1cccc(Nc2ncccc2S(N)(=O)=O)c1`: the RP-LC retention time is 811 s.

`CN(C)c1ccc(CNC(=O)C2CCN(c3cncnc3N3CCOCC3)CC2)cc1`: the RP-LC retention time was found to be 545 s. Molecule `CCn1cc(-c2ccc(C)cc2)cc1C(=O)N1CCOCC1` showed an RP-LC retention time of 932 s.

Regarding `NS(=O)(=O)c1ccc(CCNC(=O)c2csc(-c3cnccn3)n2)cc1`, the RP-LC retention time amounted to 622 s. On to `Cc1ccccc1NC(=O)Cc1cn2cc(Cl)ccc2n1`, for which the RP-LC retention time is 620 s. Consider `Cc1ccc(N2C(=O)C3N=NN(Cc4nc(-c5ccc(OC(C)C)cc5)no4)C3C2=O)cc1F` (stereo not given), for which the RP-LC retention time is 1140 s. The molecule `Cc1ccc(C)c(S(=O)(=O)N2CC(c3nc(Cc4ccccc4)no3)C2)c1` registered an RP-LC retention time of 1040 s.
